# Data from patent US20250382556A1, “MODULATION OF THE BRANCHED-CHAIN METABOLITE CONTENT OF FRUITS AND VEGETABLES” (BOARD OF TRUSTEES OF MICHIGAN STATE UNIVERSITY, priority 2024, published 2025).
# Assays:
# apple peel tissues = assay: Labeled (1,2-13C2) acetate and methanol feeding of excised apple peel; parameters: species or system Malus x domestica Borkh.; conditions: for reduction of methyl 2-methylbutanoate content: 1 mM rimsulfuron
# Description: Acetate feedings were likewise performed with excised peel tissues in 22-mL glass vials and 20 μL of treatment solution. ‘Gala’ fruit were fed with 10 mM methanol, 10 mM acetate (unlabeled or 1,2-^13C2) pH 7 balanced with KOH, 0.05% Tween 20, and 0.5 mM rimsulfuron if appropriate. These concentrations were doubled for ‘Empire’ and ‘Jonagold’ fruit.
# (§1) Headspace volatiles from small tissue samples incubated in 22 mL vials were adsorbed for 30 s using a solid-phase micro extraction (SPME) fiber (65 μm PDMS-DVB; Supelco Analytical). The SPME fiber was then directly desorbed for 1 min in the injection port of a gas chromatograph (GC; HP-6890, Hewlett-Packard) coupled to a time-of-flight mass spectrometer (MS; Pegasus II, LECO). Whole fruits and banana slices were incubated for 20 min at room temperature (22° C.) in 1-L sealed Teflon jars before a 15-s, or 3-min adsorption and 1- or 2-min desorption. Adsorption times were adjusted to ensure instrument responses were in the linear range. All desorbed volatiles were cryofocused at the beginning of the column by immersing said region of the column in liquid nitrogen. After the desorption period, the run was initiated and the liquid nitrogen removed.
# (§2) The conditions of the system were as follows. Injection port: 200° C., splitless, ultra-purified helium (99.999%) carrier gas, front inlet flow 1.5 mL·min^−1 constant, 10 mL·min^−1 purge flow, 11.5 mL·min^−1 total flow. Oven: initial temperature 40° C. for 0 min, ramped by 43° C.·min^−1 to 185° C. for 0 min. Column: HP-5 MS, 30 m×0.25 mm i.d., 0.25 μm film thickness (Agilent). Transfer line temperature 225° C. MS: Electron ionization (−70 eV), ion source temperature 200° C., solvent delay 50 sec, m/z range 29 to 400, detector voltage 1500 V, data collection rate 20 Hz.
# apple fruit = assay: Headspace volatile ester emissions of ripening apple fruit treated with AHAS inhibitor; format: in vivo, Malus x domestica Borkh.; parameters: key to butyl acetate emissions compared to control / hexyl acetate emissions compared to control / ethyl acetate emissions compared to control / propyl acetate emissions compared to control: —: Dash indicates no significant difference between treatments; conditions: for 2-methylbutyl acetate (ile) emissions compared to control / 2-methylpropyl acetate (val) emissions compared to control / butyl acetate emissions compared to control / ethyl acetate emissions compared to control / hexyl acetate emissions compared to control / pentyl acetate emissions compared to control / propyl acetate emissions compared to control / sum of anteiso- and iso-branched-chain esters emissions compared to control: 1 mM daily
# Description: Whole apple fruit, freshly harvested and at an early stage of ripening (‘ripening’), were held at room temperature (22° C.) and rubbed daily with 3 mL of a freshly made 1mM solution of the inhibitor rimsulfuron (N-((4,6-dimethoxypyrimidin-2-yl)aminocarbonyl)-3-(ethylsulfonyl)-2-pyridinesulfonamide, made from DuPont MATRIX® SG, 25% w/w active ingredient; 0.1% Tween 20) or water solution containing 0.1% Tween 20 before preparation with further treatments. Flowering quince fruit were smaller than the apple fruit and had 2 mL of the control and treatment solutions applied daily at 22° C. ‘Gala’, ‘Empire’, and ‘Jonagold’ apple fruit were treated for four, nine, and seven days before further preparation, respectively. Flowering quince fruit were treated for six days before analysis. Headspace volatile emissions were monitored for three or four representative fruits during the incubation/treatment period to determine appropriate times for further treatments. During method testing, 1 mM solutions of the imidazolinone imazamox was also assessed with apple fruit (2-[4,5-dihydro-4-methyl-4-(1-methylethyl)-5-oxo-1H-imidazol-2-yl]-5-(methoxymethyl)-3-pyridinecarboxylic acid, made from RAPTOR®, 12.1% w/w active ingredient; 0.1% Tween 20).
# as §1, §2
# Compounds were identified by comparison of the retention time and mass spectrum against authenticated reference standards and spectra (National Institute of Standards and Technology Mass Spectral Search Program Version 2.0, 2001). Volatiles were quantified by calibration with a standard of 59 authenticated, high-purity compounds (Sigma-Aldrich Co. and Fluka Chemical) including the target compounds. The standard was made by placing 0.5 μL of an equal-part mixture of the neat compounds onto a disc of filter paper before quickly placing the filter paper into a 4-L sealed flask fitted with a Mininert valve (for SPME fiber access, and allowed to vaporize for at least 6 hours. SPME adsorption and desorption times of the standard matched that of the samples quantified (e.g., 30-s adsorption, 1 min desorption when quantifying samples in 22-mL vials).
# Statistical analysis was performed using SciPy (v1.6.2), RStudio (v2023.03.0+386), or Microsoft Excel (v16.89). Against a specified value: one-tailed t-test Against two treatments: paired t-test for banana, two-sample t-test for apple and flowering quince. Against more than two treatments: Tukey's test following significant ANOVA. Analyses of branched-chain amino acids were one-tailed, all other metabolites were two-tailed. […]
# [1] = tested on: ripe ‘Red Delicious’ apple fruit; assay: Headspace 2-methylbutanoate esters of ripe apple fruit, time course; format: in vivo, Malus x domestica Borkh.; conditions: within three days of treatment
# Description: ‘Red Delicious’ apple fruit held in refrigerated air for 5 months (see above) plus 1 day at 22° C. and at an advanced ripeness stage (‘ripe’) were treated with rimsulfuron (1 mM) with 0.2% Tween 20 on day 0 of the study and for the next three consecutive days as above described. The fruit were evaluated daily for volatile emissions (see below) for eight days. On days 0, 2, 4, and 7, representative treated and untreated fruit were selected for tissue collection for metabolite analysis (see below). On day 7, samples of fruit peel were fed, as described above, with water or 20 mM isoleucine or α-keto-β-methylvalerate.
# Headspace volatiles from small tissue samples incubated in 22 mL vials were adsorbed for 30 s using a solid-phase micro extraction (SPME) fiber (65 μm PDMS-DVB; Supelco Analytical). The SPME fiber was then directly desorbed for 1 min in the injection port of a gas chromatograph (GC; HP-6890, Hewlett-Packard) coupled to a time-of-flight mass spectrometer (MS; Pegasus II, LECO). […]
# Compounds were identified by comparison of the retention time and mass spectrum against authenticated reference standards and spectra (National Institute of Standards and Technology Mass Spectral Search Program Version 2.0, 2001). Volatiles were quantified by calibration with a standard of 59 authenticated, high-purity compounds (Sigma-Aldrich Co. and Fluka Chemical) including the target compounds. […]
# [2] = ripening Empire apple peel, nine days
# [3] = ripening Gala apple peel, four days
# [4] = ripening Jonagold apple peel, seven days
structure (smiles),measurement,setting,value
"CCS(=O)(=O)c1cccnc1S(=O)(=O)NC(=O)Nc1nc(OC)cc(OC)n1 [rimsulfuron, N-((4,6-dimethoxypyrimidin-2-yl)aminocarbonyl)-3-(ethylsulfonyl)-2-pyridinesulfonamide]",M+1 and M+2 methyl pentanoate isotopologs collectively more enriched after treatment,"apple peel tissues; Empire and Jonagold, on average, 1,2-13C2 acetate",4.28 fold
same,reduction of methyl 2-methylbutanoate content,apple peel tissues; Empire peel fed methanol and acetate,99.4%
same,reduction of methyl 2-methylbutanoate content,apple peel tissues; Jonagold peel fed methanol and acetate,100%
same,enrichment of M+1 isotopolog of methyl hexanoate,"apple peel tissues; Jonagold, 1,2-13C2 acetate",slightly more enrichment than controls
same,"concentration of pentyl acetate, more abundant when treated","apple fruit; all three cultivars (Gala, Empire, Jonagold), on average",1.63 fold
same,2-methylbutyl acetate (ile) emissions compared to control,apple fruit; [2],1.9 ± 0.6%
same,2-methylpropyl acetate (val) emissions compared to control,apple fruit; [2],27.3 ± 5.4%
same,butyl acetate emissions compared to control,apple fruit; [2],—
same,ethyl acetate emissions compared to control,apple fruit; [2],61.4 ± 7.9%
same,hexyl acetate emissions compared to control,apple fruit; [2],—
same,pentyl acetate emissions compared to control,apple fruit; [2],161.9 ± 16.0%
same,propyl acetate emissions compared to control,apple fruit; [2],53.8 ± 8.5%
same,sum of anteiso- and iso-branched-chain esters emissions compared to control,apple fruit; [2],0.8 ± 0.2%
same,2-methylbutyl acetate (ile) emissions compared to control,apple fruit; [3],27.0 ± 6.3%
same,2-methylpropyl acetate (val) emissions compared to control,apple fruit; [3],36.4 ± 5.0%
same,butyl acetate emissions compared to control,apple fruit; [3],—
same,ethyl acetate emissions compared to control,apple fruit; [3],57.7 ± 9.3%
same,hexyl acetate emissions compared to control,apple fruit; [3],—
same,pentyl acetate emissions compared to control,apple fruit; [3],155.3 ± 17.5%
same,propyl acetate emissions compared to control,apple fruit; [3],—
same,sum of anteiso- and iso-branched-chain esters emissions compared to control,apple fruit; [3],19.0 ± 4.5%
same,effect on butyl acetate,"apple fruit; ripening Gala, Empire and Jonagold",no discernible effect
same,reduction of the total content of anteiso-branched-chain esters in the headspaces,"apple fruit; ripening Gala, Empire and Jonagold apple fruits, on average",91.2%
same,2-methylpropyl acetate in headspace following treatment,"apple fruit; ripening Gala, Empire and Jonagold, all three cultivars",reduced
same,2-methylbutyl acetate (ile) emissions compared to control,apple fruit; [4],16.1 ± 1.4%
same,2-methylpropyl acetate (val) emissions compared to control,apple fruit; [4],67.6 ± 4.1%
same,butyl acetate emissions compared to control,apple fruit; [4],—
same,ethyl acetate emissions compared to control,apple fruit; [4],—
same,hexyl acetate emissions compared to control,apple fruit; [4],162.7 ± 19.2%
same,pentyl acetate emissions compared to control,apple fruit; [4],172.3 ± 20.2%
same,propyl acetate emissions compared to control,apple fruit; [4],—
same,sum of anteiso- and iso-branched-chain esters emissions compared to control,apple fruit; [4],6.5 ± 0.5%
same,"headspace content of 2-methylbutanoate esters, of control fruits",[1],15.0%
